Source: a melting point compilation (Tetko et al.; mined from patent text by program, amines drawn as free bases though some values may be those of a salt)
Residues, ends and D or L forms follow the SMILES beside them.

Work on `COc1cc2nc(N)nc(-c3ccc(Br)cc3CO)c2cc1OC` yielded a melting point of 222 to 223 °C. `Cc1cc2c(cc1C1=NNC(=O)CC1C)N(C)C(=O)CO2` (stereo not drawn) showed a melting point of 180 to 182 °C. With `N#CC1CN1Cc1ccccc1` (stereo not drawn) the melting point was 81 to 83 °C. Work on `COc1ccc(C2=NN(c3ccccc3)C(=O)[C@H]3CC=CC[C@@H]23)cc1Cl` (relative stereo) yielded a melting point of 151 to 152 °C. In the case of `COC(=O)c1[nH]c(SCc2ccccn2)nc1CCNC(=O)[C@H](Cc1ccccc1)NC(=O)N(Cc1ccccc1)NC(=O)C(C)(C)C`, the melting point is reported as 171 to 172 °C. Compound `C/C(=C\CC1OC(=O)NC1=O)c1cccc(OCCc2nc(-c3ccccc3)oc2C)c1` (stereo not drawn) has a melting point of 100 to 101 °C. With `Nc1cn(-c2cccnc2)nc1Br` the melting point was 143 to 146 °C. Compound `COCCNC(=O)c1ccc(SC)c(N)c1` has a melting point of 66 to 68 °C. Work on `CCCC(=O)C1=C(O)CC(c2ccc(OC)c(NC(C)=O)c2)CC1=O` (stereo not drawn) yielded a melting point of 102 to 106 °C. `C#CCOC(=O)C1=C(C)NC(C)=C(C(=O)OCC)C1c1ccccc1C` (stereo not drawn) showed a melting point of 129 °C. In the case of `CCCCCCCC(=O)NCc1cccc(-c2ccc(C=CC(=O)O)cc2)c1`, the melting point is reported as 176 °C. Work on `O=C(O)CCCOc1ccc(-c2ccc(-c3c(Cc4ccccc4)sc4ccccc34)cc2)cc1Br` yielded a melting point of 135 to 137 °C. `CCCOc1ccccc1-c1nc2[nH]c(=O)nnc2c(=O)[nH]1` gave a melting point of 298 to 299 °C. `CC(C)(C)OC(=O)NC(C(=O)O)c1c[nH]c2ccccc12` (stereo not drawn) showed a melting point of 144 °C. In the case of `CN1CCc2c(cccc2NC(=O)c2ccccc2Br)C1`, the melting point is reported as 206 to 208 °C. In the case of `CC(=O)OCCCc1cccc(-c2nc(=O)c3ccccc3s2)n1`, the melting point is reported as 141 to 142 °C. Work on `O=c1oc2ccc(Cl)cc2cc1S(=O)(=O)Cc1ccc(Cl)c([N+](=O)[O-])c1` yielded a melting point of 272 to 275 °C. In the case of `COc1ccc(C2=NN(C3CCN(C(=O)CN4C(=O)COCC4=O)CC3)C(=O)C(C)(C)C2)cc1OC`, the melting point is reported as 210 to 211 °C. `Cc1ccc(-c2cc(C(F)(F)F)n3ncc(-c4cccnc4)c3n2)cc1C(F)(F)F` showed a melting point of 182 °C. With `Cc1cc(NS(=O)(=O)c2cccs2)c2[nH]c(C3=NCCS3)cc2c1` the melting point was 202 to 203 °C. `O=P(O)(O)C(O)(CCCc1ccc(Cl)cc1)P(=O)(O)O` gave a melting point of 181 °C. `C#Cc1cccc(N2C(=O)C=CC2=O)c1` showed a melting point of 129 to 131 °C. `COc1cc(C2NC(=O)C(C)S2)cc(OC)c1OC` (stereo not drawn) gave a melting point of 133 to 134 °C. `CN1CCN(c2ccnc3c(NC(=O)c4c(Cl)cccc4Cl)ccc(Cl)c23)C1=O` showed a melting point of 259 to 263 °C. `Fc1cc(F)cc(Oc2ccc(OCc3ccc(Cl)cc3)c(Cl)c2)c1` gave a melting point of 95.3 °C. For `C[C@@H]1Nc2nc(Cl)ccc2NC1=O`, the melting point was 236 to 237 °C. Compound `N#Cc1cc(O)ccc1Br` has a melting point of 183 to 184 °C. For `CCNc1ccc(CN2OCC(C)(C)C2=O)c(Cl)c1`, the melting point was 135 to 138 °C. Work on `CC(Oc1ccccc1)c1nnc(N)s1` (stereo not drawn) yielded a melting point of 157 to 167 °C. `CC(=O)Nc1nc2c(s1)-c1nc(N3CCCC(CNC(=O)OC(C)(C)C)C3)ncc1CC2` (stereo not drawn) showed a melting point of 250 to 255 °C. `CN1C(=S)C(CCC(=O)O)c2ccccc21` (stereo not drawn) showed a melting point of 126 to 128 °C. With `COc1ccc(C2CSc3ccccc3NC2=O)cc1OC` (stereo not drawn) the melting point was 174 °C. Compound `CCOC(=O)C1CCN(C(=O)c2[nH]c(C)c(-c3nc4ccc(C(=O)c5ccccc5)cc4[nH]3)c2C)CC1` has a melting point of 272 to 274 °C. `CCCOc1nc(=O)n(C(=O)NC)s1` gave a melting point of 112 °C. `CC(=O)NCCN1CCc2cc(NC(=O)c3ccccc3-c3ccc(C(F)(F)F)cc3)ccc2C1` showed a melting point of 163 °C. For `CC1=C(C(=O)OC(C)C)C(c2cccc([N+](=O)[O-])c2)n2c(n[nH]c2=O)N1` (stereo not drawn), the melting point was 225 to 227 °C. With `O=C1NN=C(CCc2ccccc2)c2c[nH]c3cccc1c23` the melting point was 182 to 184 °C. For `Cc1nc2cc(Oc3cc(-c4ccc(C(C)(C)C)cc4)ncn3)ccc2s1`, the melting point was 163 to 165 °C. `Nc1ccc(N(CCO)C(=O)OCc2ccccc2)c(O)c1` gave a melting point of 142 °C. In the case of `CCOCCn1cc2c(C3C(=O)Nc4ccc(Br)cc43)nc(NCCN(C)C)nc2n1` (stereo not drawn), the melting point is reported as 247 to 251 °C. `Cc1ccc2c(c1)N(CC(=O)c1ccccc1C)C(=O)C(NC(=O)Nc1cccc(C(=O)O)c1)CN2C(=O)CC(C)C` (stereo not drawn) showed a melting point of 202 to 205 °C. In the case of `Brc1cccc2c1[nH]c1c2ccc2cc[nH]c21`, the melting point is reported as > 250 °C. With `O=c1oc(-c2ccc(-c3nc4ccccc4c(=O)o3)cc2)nc2ccccc12` the melting point was > 300 °C. Compound `Cc1nc2c(O)c(CCC(O)c3ccccc3)c(C(=O)N(C)C)cc2n1C` (stereo not drawn) has a melting point of 216 to 218 °C. `CN1C(=O)C=C(c2ccc3c(c2)OCO3)C1=O` gave a melting point of 210 to 215 °C. For `CC(=O)Oc1cc(C)cc(C(=O)N[C@@H](Cc2ccccc2)[C@H](OC(C)=O)C(=O)O)c1C`, the melting point was 185 to 186 °C. For `CON(Cc1ccc(C(=O)OC(C)(C)C)cc1)C(=O)C1=C(O)C(=O)N(C)C1`, the melting point was 157 to 160 °C. `CC1(C)Oc2ccccc2-n2cnc(-c3noc(C4CC4)n3)c21` showed a melting point of 155 to 156 °C. For `CCC1CC2CC(=O)OC3OC4(C)CCC(C1C)C23OO4` (single isomer, unassigned; (+)), the melting point was 155 to 157 °C. For `CCC(CC)c1ccc(Cl)c2nc3n(c12)CCCC(=O)N3c1ccc(Cl)cc1Cl`, the melting point was 135 to 137 °C. For `O=Cc1cc2c(s1)CCc1cc(=O)n(-c3ccc(Cl)cc3)nc1-2`, the melting point was 242 to 244 °C. `O=C(O)C(=O)N1CCC(Oc2ccccc2)CC1` showed a melting point of 109 to 112 °C. Work on `CC(C)(C)OC(=O)COc1ccc2sc(-c3ccccn3)nc(=O)c2c1` yielded a melting point of 183 to 184 °C. Compound `CCOC(=O)n1cc(C=O)c(-c2ccc([N+](=O)[O-])o2)n1` has a melting point of 140 to 141 °C. Work on `Nc1cc(C(=O)O)cc(SCc2ccccc2)c1Oc1ccccc1` yielded a melting point of 159 to 161 °C. Work on `CN1C(C(=O)Nc2cccccc2=O)=C(OC(=O)C=Cc2ccccc2)c2sccc2S1(=O)=O` yielded a melting point of 167 to 170 °C. `COc1ccc([N+](=O)[O-])cc1C(=O)NCc1ccc(C(F)(F)F)cc1` showed a melting point of 108 to 109 °C. `CC(C)C[C@@H](CO)NC(=O)[C@H](Cc1c[nH]cn1)NC(=O)C(CNCCCc1ccccc1)Cc1cccc2ccccc12` (stereo partly drawn) showed a melting point of 72 to 76 °C. With `S=c1ncc2ccccc2[nH]1` the melting point was 234 to 235 °C. `CNS(=O)(=O)CCS(C)(=O)=O` showed a melting point of 116 to 117 °C. `CC(NC(=O)C(N)Cc1ccccc1)C(=O)NCC(=O)NC(Cc1ccccc1)C(=O)NCC(=O)NC(CCCNC(=N)N)C(=O)O` (stereo not drawn) (H-FAGFGR-OH; configuration not given here) gave a melting point of 154 to 156 °C. Work on `CCc1nn(CCNC(=O)c2ccccc2)c(CC)c1Cc1cc(Cl)cc(Cl)c1` yielded a melting point of 115 to 117 °C. `COc1ccc(-c2cc(F)c(F)cc2-c2ccc(S(N)(=O)=O)cc2)cc1OC` gave a melting point of 157 to 158 °C. For `FC(F)(F)c1ccc(-c2cc(C(F)(F)F)n3ncc(C#Cc4cncnc4)c3n2)cc1`, the melting point was 175 °C. In the case of `NC(=O)c1cncc(OCC(O)CO)c1` (stereo not drawn), the melting point is reported as 197 to 199 °C. For `O=C(O)c1cccc(Cn2cc(C3c4ccccc4C=Cc4ccccc43)c(=S)[nH]c2=S)c1`, the melting point was 167 to 170 °C. `O=C(Nc1ccc(S(=O)(=O)C(F)(F)F)cc1)Nn1cnc2ccccc2c1=O` showed a melting point of 118 to 121 °C. `CCCCCS(=O)(=O)NC(=O)/C(C)=C/c1ccc(OCCCOC)cc1Oc1ncc(Cl)cc1Cl` gave a melting point of 116 to 117 °C. In the case of `CCCOc1nc2cccc(C(=O)OCC)c2n1Cc1ccc(-c2ccccc2C#N)cc1`, the melting point is reported as 90 to 92 °C. In the case of `CCC(CC)N(O)C(=O)Nc1ccccc1Oc1ccccc1`, the melting point is reported as 141 to 142 °C. Work on `CC(=O)OCOC(=O)Oc1c(Br)cc(C#N)cc1Br` yielded a melting point of 84 to 86 °C. `CCC1=Nc2cc(Cl)ccc2CC(c2sccc2C)N1C` (stereo not drawn) showed a melting point of 94 to 96 °C. In the case of `O=C(Nc1ccc2[nH]c(=S)oc2c1)C(=O)N1CCC(Cc2ccccc2)CC1`, the melting point is reported as 203 °C. In the case of `CC(Oc1cc2c(c(Cl)c1Cl)C(=O)C(C)(C1CCCC1)C2)C(=O)O` (stereo not drawn), the melting point is reported as 140 to 142 °C. Compound `NS(=O)(=O)c1ccc(-c2cnn(CC=C(Cl)Cl)c(=O)c2-c2ccc(F)cc2)cc1` has a melting point of 184 to 185 °C. For `O=C(C1=NN(CC(F)(F)F)C(=O)CN1)c1ccccc1`, the melting point was 142 to 145 °C. For `COc1cc(C(F)(F)F)nc(NC(=O)Oc2ccccc2)n1`, the melting point was 85 to 88 °C. With `N#CCCCNC(=O)c1n[nH]cc1NC(=O)c1ccccn1` the melting point was 231 to 233 °C. For `O=S(=O)(NCC1CCN(C[C@H]2COc3ccc(Cl)cc3O2)CC1)c1ccc(F)cc1`, the melting point was 127 to 129 °C. With `COC(OC)c1cnc(N2C(=O)c3ccccc3C2=O)c(C#N)n1` the melting point was 115 to 116 °C. Work on `CCc1nn(C(=O)CCCN2CCOCC2)c(CC)c1CCCCCCOc1ccc(OC)cc1Cl` yielded a melting point of 93 to 95 °C. For `Cc1ccc(N2CCOCC2)c(N=C2NCCN2CCO)c1`, the melting point was 135 to 136 °C. Compound `CC(C)(C)c1ccc(CCOc2ncnc3ncccc23)cc1` has a melting point of 77 to 79 °C. For `O=C1C=NC(c2ccccc2)O1` (stereo not drawn), the melting point was 90 °C. For `O=C(O)CCCCCCCn1ccnc1`, the melting point was 91 to 94 °C. In the case of `CCOCc1nc2c(N)nc3cc(OCc4ccc(C)cc4)ccc3c2n1CC(C)C`, the melting point is reported as 209 to 210 °C. Compound `CNC(=O)c1ccc(F)c(F)c1` has a melting point of 143 to 145 °C. For `CCc1cc(C)cc(CC)c1C1C(=O)C2CC(COc3nc(C)c(C)s3)CC2C1=O` (stereo not drawn), the melting point was 73 to 74 °C. Compound `CC(C)(C)OC(=O)NC(Cc1ccccc1)C(O)CNCC(O)C(Cc1cccc(OCc2ccccc2)c1)NC(=O)OC(C)(C)C` (stereo not drawn) has a melting point of 125 to 145 °C. With `COc1ccc([N+](=O)[O-])c(C(=O)O)c1OC` the melting point was 187 to 189 °C. Work on `O=C(O)c1c(C(F)(F)F)nc2cc(C(F)(F)F)ccc2c1O` yielded a melting point of 240 °C. For `CN(C)Nc1c(-c2c(F)cc(F)cc2F)c(Cl)nc2ncnn12`, the melting point was 165 to 168 °C. Compound `Cc1cc(O)nc(SCC(CS(=O)(=O)c2ccc(-c3ccc(Cl)cc3)cc2)C(=O)O)n1` (stereo not drawn) has a melting point of 165 to 168 °C. Work on `Cc1cc(O)c(O)cc1S(=O)(=O)c1ccc(Cl)c([N+](=O)[O-])c1` yielded a melting point of 196 to 197 °C. With `CCOC(=O)c1cc(SC#N)c(-c2ccc(Cl)cc2)[nH]1` the melting point was 138 to 141 °C. For `CCOC(=O)c1cn(C2CC2)c2c(F)c(C#Cc3cc(Cc4cnc(N)nc4N)cc(OC)c3OC)c(F)cc2c1=O`, the melting point was > 230 °C. `CC1CCc2c(N3CCC(N(C)C)CC3)c(F)cc3c(=O)c(C(=O)O)cn1c23` (stereo not drawn) gave a melting point of 259 to 261 °C. In the case of `O=C(O)c1cc(Br)c(O)cc1O`, the melting point is reported as 210 to 212 °C.
